Measured values published in BigSolDB 2.1.

COc1ccc2[nH]cc(CCNC(C)=O)c2c1
solubility (mole fraction)
Details | 278.15 K | 283.15 K | 288.15 K | 293.15 K | 298.15 K | 303.15 K | 308.15 K | 313.15 K | 318.15 K | 323.15 K
in ethanol | 0.00853 | 0.0113 | 0.0151 | 0.02 | 0.0254 | 0.032 | 0.0406 | 0.0527 | 0.0665 | 0.0844
in isobutanol | 0.00406 | 0.00538 | 0.0073 | 0.00972 | 0.0127 | 0.0167 | 0.0212 | 0.0276 | 0.0352 | 0.0441
in methanol | 0.0116 | 0.0158 | 0.0211 | 0.0282 | 0.0357 | 0.0462 | 0.0594 | 0.0757 | 0.0963 | 0.122
in methyl acetate | 0.00303 | 0.00406 | 0.00531 | 0.00688 | 0.0085 | 0.0112 | 0.0144 | 0.0191 | 0.0244 | 0.0306
in n-butanol | 0.00518 | 0.00676 | 0.009 | 0.0118 | 0.0152 | 0.0199 | 0.0257 | 0.0328 | 0.0425 | 0.0536
in n-hexanol | 0.0038 | 0.00497 | 0.00679 | 0.00872 | 0.0114 | 0.0146 | 0.019 | 0.0244 | 0.0308 | 0.0393
in n-pentanol | 0.00515 | 0.00671 | 0.00889 | 0.0114 | 0.0145 | 0.0184 | 0.0233 | 0.0291 | 0.0365 | 0.0444
in n-propanol | 0.00602 | 0.00792 | 0.0108 | 0.0147 | 0.0197 | 0.0254 | 0.0329 | 0.0418 | 0.0538 | 0.0701
